Source: US8088763B2 (priority 2004, dated 2012)

Assays:
[1] = molecular target: T1, 5HT-uptake (Rattus norvegicus, UniProt P31652); assay: biochemical; conditions: for inhibition at 10 µM: read-out: 5HT-uptake [10 μM], % inhibition
T1 construct: synaptosomes were freshly isolated from areas of rats' brains

[2] = molecular target: NA-uptake (Rattus norvegicus, UniProt Q63380); assay: biochemical; conditions: for inhibition at 10 µM: read-out: NA-uptake [10 μM], % inhibition
Sequence of NA-uptake (Q63380 1-617): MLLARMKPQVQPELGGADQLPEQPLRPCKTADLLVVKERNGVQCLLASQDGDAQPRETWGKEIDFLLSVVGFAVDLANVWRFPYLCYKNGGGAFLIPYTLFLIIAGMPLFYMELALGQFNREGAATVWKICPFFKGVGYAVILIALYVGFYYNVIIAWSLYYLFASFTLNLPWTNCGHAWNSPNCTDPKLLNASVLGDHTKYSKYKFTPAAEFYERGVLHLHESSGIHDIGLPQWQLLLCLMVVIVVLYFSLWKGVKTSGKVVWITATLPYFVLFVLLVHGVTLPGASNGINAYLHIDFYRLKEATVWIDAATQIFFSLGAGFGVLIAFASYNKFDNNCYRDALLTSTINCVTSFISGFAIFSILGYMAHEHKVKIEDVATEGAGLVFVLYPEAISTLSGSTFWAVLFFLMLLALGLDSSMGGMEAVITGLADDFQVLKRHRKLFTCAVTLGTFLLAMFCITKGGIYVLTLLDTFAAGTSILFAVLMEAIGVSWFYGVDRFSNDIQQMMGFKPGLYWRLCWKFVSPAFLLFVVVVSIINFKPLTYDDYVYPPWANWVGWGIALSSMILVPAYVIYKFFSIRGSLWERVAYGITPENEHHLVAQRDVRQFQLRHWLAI

T1 sequence (P31652 whole entry): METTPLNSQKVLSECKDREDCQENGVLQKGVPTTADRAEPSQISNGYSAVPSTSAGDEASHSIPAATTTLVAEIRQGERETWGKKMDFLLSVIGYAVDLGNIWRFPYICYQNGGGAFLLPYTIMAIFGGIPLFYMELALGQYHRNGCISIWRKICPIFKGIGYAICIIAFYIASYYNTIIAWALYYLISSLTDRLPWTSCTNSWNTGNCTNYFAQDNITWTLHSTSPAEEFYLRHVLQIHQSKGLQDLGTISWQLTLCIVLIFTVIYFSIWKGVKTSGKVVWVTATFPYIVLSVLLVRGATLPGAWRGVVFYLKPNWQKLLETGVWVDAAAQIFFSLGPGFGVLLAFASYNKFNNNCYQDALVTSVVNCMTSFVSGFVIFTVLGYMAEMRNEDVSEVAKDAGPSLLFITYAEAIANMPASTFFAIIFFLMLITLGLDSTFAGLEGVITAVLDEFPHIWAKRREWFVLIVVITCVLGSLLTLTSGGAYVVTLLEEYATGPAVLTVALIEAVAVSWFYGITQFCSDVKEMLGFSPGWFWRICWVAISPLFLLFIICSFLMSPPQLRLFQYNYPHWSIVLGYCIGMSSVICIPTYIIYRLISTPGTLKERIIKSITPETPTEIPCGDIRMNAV

| SMILES | inhibition at 10 µM [1] [%] | inhibition at 10 µM [2] [%] | 5HT-uptake [10 μM], % inhibition [1] [%] | NA-uptake [10 μM], % inhibition [2] [%] |
| --- | --- | --- | --- | --- |
| CN(C)C1(Cc2cccc(Cl)c2)CCC(NC(=O)CCC(=O)NCc2ccccn2)CC1 (stereo not drawn) [Example 73, N-[4-(3-chloro-benzyl)-4-dimethylamino-cyclohexyl]-N′-pyridin-2-ylmethyl-succinamide] | 93 | 87 |  |  |
| CCOP(=O)(Cc1ccc(NC(=O)CCC(=O)NC2CCC(Cc3ccc(Cl)cc3)(N(C)C)CC2)cc1)OCC (stereo not drawn) [Example 93, (4-{3-[4-(4-chloro-benzyl)-4-dimethylamino-cyclohexylcarbamoyl]-propionylamino}-benzyl)-phosphonic acid diethylester] | 92 | 75 |  |  |
| CC(=O)c1ccc(N2CCN(C(=O)CCC(=O)NC3CCC(Cc4ccc(C)cc4)(N(C)C)CC3)CC2)cc1 (stereo not drawn) [Example 27, 4-[4-(4-Acetyl-phenyl)-piperazin-1-yl]-N-[4-dimethylamino-4-(4-methyl-benzyl)-cyclohexyl]-4-oxo-butyramide] | 95 | 92 |  |  |
| CCN(Cc1ccncc1)C(=O)CCC(=O)NC1CCC(Cc2ccc(Cl)cc2)(N(C)C)CC1 (stereo not drawn) [Example 70, N-[4-(4-chloro-benzyl)-4-dimethylamino-cyclohexyl]-N′-ethyl-N′-pyridin-4-ylmethyl-succinamide] | 93 | 96 |  |  |
| Cc1ccc(CC2(N(C)C)CCC(NC(=O)CCC(=O)N3CCN(C(=O)OC(C)(C)C)CC3)CC2)cc1 (stereo not drawn) [Example 28, 4-{3-[4-dimethylamino-4-(4-methyl-benzyl)-cyclohexylcarbamoyl]-propionyl}-piperazin-1-carboxylic acid-tert-butylester] | 92 | 81 |  |  |
| Cc1cccc(N2CCN(C(=O)CCCC(=O)NC3CCC(Cc4ccccc4)(N(C)C)CC3)CC2)c1C (stereo not drawn) [Example 56, 5-[4-(2,3-dimethyl-phenyl)-piperazin-1-yl]-5-oxo-valeric acid (4-benzyl-4-dimethylamino-cyclohexyl)-amide] | 95 | 96 |  |  |
| Cc1ccc(CC2(N(C)C)CCC(NC(=O)CCC(=O)N3CCN(c4cccc(C)c4C)CC3)CC2)cc1 (stereo not drawn) [Example 58, N-[4-dimethylamino-4-(4-methyl-benzyl)-cyclohexyl]-4-[4-(2,3-dimethyl-phenyl)-piperazin-1-yl]-4-oxo-butyramide] | 93 | 79 |  |  |
| CN(CC(=O)OC(C)(C)C)C(=O)CCCC(=O)NC1CCC(Cc2ccccc2)(N(C)C)CC1 (stereo not drawn) [Example 24, {[4-(4-benzyl-4-dimethylamino-cyclohexylcarbamoyl)-butyryl]-methyl-amino}-acetic acid tert butyl ester] | 92 | 91 |  |  |
| Cc1cccc(CC2(N(C)C)CCC(NC(=O)CCC(=O)N3CCN(c4ccc(Cl)cc4)CC3)CC2)c1 (stereo not drawn) [Example 113, 4-[4-(4-chloro-phenyl)-piperazin-1-yl]-N-[4-dimethylamino-4-(3-methyl-benzyl)-cyclohexyl]-4-oxo-butyramide] | 97 | 94 |  |  |
| Cc1cccc(CC2(N(C)C)CCC(NC(=O)CCC(=O)NC(C)c3ccc(F)cc3)CC2)c1 (stereo not drawn) [Example 112, N-[4-dimethylamino-4-(3-methyl-benzyl)-cyclohexyl]-N′-[1-(4-fluoro-phenyl)-ethyl]-succinamide] | 96 | 101 |  |  |
| CCOC(=O)C(C)NC(=O)CCC(=O)NC1CCC(Cc2cccc(Cl)c2)(N(C)C)CC1 (stereo not drawn) [Example 30, 2-{3-[4-(3-chloro-benzyl)-4-dimethylamino-cyclohexylcarbamoyl]-propionylamino}-propanoic acid ethylester] | 93 | 96 |  |  |
| Cc1cccc(CC2(N(C)C)CCC(NC(=O)CCC(=O)N3CCc4[nH]c5ccc(F)cc5c4C3)CC2)c1 (stereo not drawn) [Example 106, N-[4-dimethylamino-4-(3-methyl-benzyl)-cyclohexyl]-4-(8-fluoro-1,3,4,5-tetrahydro-pyrido[4,3-b]indol-2-yl)-4-oxo-butyramide] | 93 | 98 |  |  |
| Cc1ccc(CC2(N(C)C)CCC(NC(=O)CCC(=O)NC(C)C(C)C)CC2)cc1 (stereo not drawn) [Example 105, N-[4-dimethylamino-4-(4-methyl-benzyl)-cyclohexyl]-N′-(1,2-dimethyl-propyl)-succinamide] | 92 | 90 |  |  |
| Cc1ccc(CC2(N(C)C)CCC(NC(=O)CCC(=O)N3CC=C(c4ccccc4)CC3)CC2)cc1 (stereo not drawn) [Example 87, N-[4-dimethylamino-4-(4-methyl-benzyl)-cyclohexyl]-4-oxo-4-(4-phenyl-3,6-dihydro-2H-pyridin-1-yl)-butyramide] | 96 | 94 |  |  |
| CCOC(=O)N1CCN(C(=O)CCC(=O)NC2CCC(Cc3cccc(Cl)c3)(N(C)C)CC2)CC1 (stereo not drawn) [Example 84, 4-{3-[4-(3-chloro-benzyl)-4-dimethylamino-cyclohexylcarbamoyl]-propionyl}-piperazin-1-carboxylic acid ethylester] | 95 | 96 |  |  |
| CN(C)C1(Cc2ccc(Cl)cc2)CCC(NC(=O)CCC(=O)NCc2cccc3ccccc23)CC1 (stereo not drawn) [Example 34, N-[4-(4-chloro-benzyl)-4-dimethylamino-cyclohexyl]-N′-naphthalen-1-ylmethyl-succinamide] | 97 | 87 |  |  |
| Cc1ccc(CC2(N(C)C)CCC(NC(=O)CCC(=O)N(C)CCNC(=O)C(F)(F)F)CC2)cc1 (stereo not drawn) [Example 11, N-[4-dimethylamino-4-(4-methyl-benzyl)-cyclohexyl]-N′-methyl-N′-[2-(2,2,2-trifluoro-acetylamino)-ethyl]-succinamide] | 92 | 77 |  |  |
| CN(C)C1(Cc2cccc(Cl)c2)CCC(NC(=O)CCC(=O)NC2CCOC2=O)CC1 (stereo not drawn) [Example 2, N-[4-(3-chloro-benzyl)-4-dimethylamino-cyclohexyl]-N′-(2-oxo-tetrahydro-furan-3-yl)-succinamide] | 95 | 87 |  |  |
| Cc1cccc(CC2(N(C)C)CCC(NC(=O)CCC(=O)NC(C)c3ccc4ccccc4c3)CC2)c1 (stereo not drawn) [Example 122, N-[4-dimethylamino-4-(3-methyl-benzyl)-cyclohexyl]-N′-(1-naphthalen-2-yl-ethyl)-succinamide] | 93 | 102 |  |  |
| COc1ccc(OC)c(CN2CCN(C(=O)CCCC(=O)NC3CCC(Cc4ccccc4)(N(C)C)CC3)CC2)c1 (stereo not drawn) [Example 18, 5-[4-(2,5-dimethoxy-benzyl)-piperazin-1-yl]-5-oxo-valeric acid (4-benzyl-4-dimethylamino-cyclohexyl)-amide] | 94 | 84 |  |  |
| Cc1cccc(CC2(N(C)C)CCC(NC(=O)CCC(=O)N3CCC(Cc4ccccc4)CC3)CC2)c1 (stereo not drawn) [Example 103, 4-(4-benzyl-piperidin-1-yl)-N-[4-dimethylamino-4-(3-methyl-benzyl)-cyclohexyl]-4-oxo-butyramide] | 94 | 108 |  |  |
| Cc1ccc(CC2(N(C)C)CCC(NC(=O)CCC(=O)N3CCN(c4cccc(C)c4)CC3)CC2)cc1 (stereo not drawn) [Example 6, N-[4-dimethylamino-4-(4-methyl-benzyl)-cyclohexyl]-4-oxo-4-(4-m-tolyl-piperazin-1-yl)-butyramide] | 96 | 91 |  |  |
| CN(C)C1(Cc2cccc(Cl)c2)CCC(NC(=O)CCC(=O)N2CC=CCC2)CC1 (stereo not drawn) [Example 39, N-[4-(3-chloro-benzyl)-4-dimethylamino-cyclohexyl]-4-(3,6-dihydro-2H-pyridin-1-yl)-4-oxo-butyramide] | 94 | 90 |  |  |
| COc1ccc(CNC(=O)CCC(=O)NC2CCC(Cc3ccc(Cl)cc3)(N(C)C)CC2)c(OC)c1 (stereo not drawn) [Example 68, N-[4-(4-chloro-benzyl)-4-dimethylamino-cyclohexyl]-N′-(2,4-dimethoxy-benzyl)-succinamide] | 98 | 85 |  |  |
| COc1ccc(CN2CCN(C(=O)CCC(=O)NC3CCC(Cc4cccc(C)c4)(N(C)C)CC3)CC2)cc1F (stereo not drawn) [Example 35, N-[4-dimethylamino-4-(3-methyl-benzyl)-cyclohexyl]-4-[4-(3-fluoro-4-methoxy-benzyl)-piperazin-1-yl]-4-oxo-butyramide] | 94 | 95 |  |  |
| Cc1cccc(CC2(N(C)C)CCC(NC(=O)CCC(=O)N3CCN(Cc4c(Cl)cccc4Cl)CC3)CC2)c1 (stereo not drawn) [Example 23, 4-[4-(2,6-dichloro-benzyl)-piperazin-1-yl]-N-[4-dimethylamino-4-(3-methyl-benzyl)-cyclohexyl]-4-oxo-butyramide] | 92 | 92 |  |  |
| CN(Cc1cccnc1)C(=O)CCC(=O)NC1CCC(Cc2cccc(Cl)c2)(N(C)C)CC1 (stereo not drawn) [Example 137, N-[4-(3-chloro-benzyl)-4-dimethylamino-cyclohexyl]-N′-methyl-N′-pyridin-3-ylmethyl-succinamide] | 94 | 83 |  |  |
| CCOC(=O)CCNC(=O)CCC(=O)NC1CCC(Cc2ccc(C)cc2)(N(C)C)CC1 (stereo not drawn) [Example 9, 3-{3-[4-dimethylamino-4-(4-methyl-benzyl)-cyclohexylcarbamoyl]-propionylamino}-propanoic acid ethylester] | 93 | 91 |  |  |
| CN(C)C1(Cc2cccc(Cl)c2)CCC(NC(=O)CCC(=O)NCCc2c[nH]c3ccccc23)CC1 (stereo not drawn) [Example 99, N-[4-(3-chloro-benzyl)-4-dimethylamino-cyclohexyl]-N′-[2-(1H-indol-3-yl)-ethyl]-succinamicle] |  |  | 94 | 99 |
| Cc1ccc(CC2(N(C)C)CCC(NC(=O)CCC(=O)N3CCN(C(=O)c4cnc(C)cn4)CC3)CC2)cc1 (stereo not drawn) [Example 10, N-[4-dimethylamino-4-(4-methyl-benzyl)-cyclohexyl]-4-[4-(5-methyl-pyrazin-2-carbonyl)-piperazin-1-yl]-4-oxo-butyramide] | 92 | 78 |  |  |
